Assay results published in patent publication US20220047606A1, “TREATMENT METHOD WITH IAP INHIBITOR” (Ascentage Pharma (Suzhou) Co., Ltd., priority 2019, published 2022).

Key:
[1] = Phase I dose-escalation study (NCT03585322) in chronic hepatitis B patients: other findings (Fibro test score, ALT normalization); format: in vivo, human; settings: for Fibro Test Score Changes from baseline to end of follow-up, Mean(SD): 12 weeks follow up
Description: (§1) Methods: This study (NCT number: NCT03585322) is a multi-center, single-agent, open-label, Phase I dose-escalation study. Chronic hepatitis B (CHB) patients without receiving anti-HBV treatment within 6 months before screening were recruited and administrated with Compound (I) weekly via intravenous infusion (IV) in 4 escalated dosage (7 mg, 12 mg, 20 mg and 30 mg) for 4 weeks followed with 12 weeks follow up. The primary objective of this study is to assess the safety, with secondary outcome measures focused on pharmacokinetics (PK) and Pharmacodynamics (PD) of Compound (I) as monotherapy in CHB patients.

[2] = Phase I dose-escalation study (NCT03585322) in chronic hepatitis B patients: safety; format: in vivo, human
Description: as §1

[3] = Phase I dose-escalation study (NCT03585322) in chronic hepatitis B patients: pharmacokinetics; format: in vivo, human
Description: as §1

hepatitis B virus (HBV) = assay: Phase I dose-escalation study (NCT03585322) in chronic hepatitis B patients: pharmacodynamics (HBsAg, HBV DNA); format: in vivo, human
Description: as §1

[4] = test system: IAPs (inhibitor of apoptosis proteins); assay: Preclinical studies: IAP inhibition in vivo and in vitro
chronic HBV infections = assay: Preclinical studies: clearance of chronic HBV infection in different models
[5] = 7 mg weekly IV for 4 weeks, n = 3 CHB patients
[6] = 12 mg weekly IV for 4 weeks, n = 9 CHB patients
[7] = 20 mg weekly IV for 4 weeks, N = 6 CHB patients
[8] = 30 mg weekly IV for 4 weeks, N = 6 CHB patients

## CN[C@@H](C)C(=O)N[C@H]1CN(S(=O)(=O)c2cccc(S(=O)(=O)N3CC[C@H]4CC[C@@H](C(=O)NC(c5ccccc5)c5ccccc5)N4C(=O)[C@@H](NC(=O)[C@H](C)NC)C3)c2)CC[C@H]2CC[C@@H](C(=O)NC(c3ccccc3)c3ccccc3)N2C1=O [Compound (I), (5S ,5′S ,8S ,8′S,10aR,10a′R)-3,3′-(1,3-phenylenedisulfonyl)bis(N-benzhydryl-5-((S)-2-(methylamino)propanamido)-6-oxodecahydropyrrolo[1,2-a][1,5]diazocine-8-carboxamide)]
[1]; 7 mg weekly IV for 4 weeks, N = 3
  Fibro Test Score Changes from baseline to end of follow-up, Mean(SD): 0.27 kPa
[1]; 12 mg weekly IV for 4 weeks, N = 3
  Fibro Test Score Changes from baseline to end of follow-up, Mean(SD): −1.80 kPa
[1]; 20 mg weekly IV for 4 weeks, N = 6
  Fibro Test Score Changes from baseline to end of follow-up, Mean(SD): −0.33 kPa
[1]; 30 mg weekly IV for 4 weeks, N = 2
  Fibro Test Score Changes from baseline to end of follow-up, Mean(SD): −4.05 kPa
[1]; 10/22 patients
  patients with ALT normalization: 46%
[2]; [5]
  Any Drug-Related TEAE (%): (66.7%)
  Any Drug-Related TEAE N: 2
  SAE (%): (0%)
  SAE N: 0
[2]; [6]
  Any Drug-Related TEAE (%): (33.3%)
  Any Drug-Related TEAE N: 3
  SAE (%): (0%)
  SAE N: 0
[2]; [7]
  Any Drug-Related TEAE (%): (100.0%)
  Any Drug-Related TEAE N: 6
  SAE (%): (0%)
  SAE N: 0
[2]; 30 mg cohort
  patients with grade 2 facial nerve disorder: 1 patient
[2]; 30 mg cohort, 1 patient
  time to recovery from grade 2 facial nerve disorder: ≤ 4 weeks
[2]; [8]
  Any Drug-Related TEAE (%): (83.3%)
  Any Drug-Related TEAE N: 5
  SAE (%): (16.7%)
  SAE N: 1
[2]; all cohorts 7-30 mg weekly IV
  drug-related adverse event: ALT increase, incidence: 26%
  drug-related adverse event: AST increase, incidence: 22%
  drug-related adverse event: infusion site pain, incidence: 15%
  drug-related adverse event: infusion site reaction, incidence: 15%
  drug-related adverse event: total bile acids increase, incidence: 15%
  patients with grade 3 ALT or AST elevation: Four
[2]; ascending doses from 7 mg to 30 mg
  safety and tolerability, overall: safe and well tolerated
[2]; the four patients with grade 3 elevation
  grade 3 ALT or AST elevation, extent: 5-15 × ULN
[3]; 7, 12, 20, 30 mg weekly IV
  PK analysis: plasma exposure versus dose: dose proportional increase in plasma exposure
[3]; weekly IV for 4 weeks
  PK analysis: accumulation after multiple dosing: no accumulation after multiple dosing
Hepatitis B virus (HBV); 5/26 patients
  patients with reduction of HBsAg at ≥0.5 log: 19%
Hepatitis B virus (HBV); 12/26 patients
  patients with reduction of HBsAg at ≥0.2 log: 46%
Hepatitis B virus (HBV); 23 of 26 patients
  patients with decline of HBV DNA: 89%
Hepatitis B virus (HBV); during post-treatment follow-up, 11/23 patients
  patients with prolonged HBsAg reduction: 48%
Hepatitis B virus (HBV); week 4, 17 of 26 patients
  patients with reduction of HBsAg: 65%
[4]
  inhibition of IAPs: inhibits IAPs in vivo and in vitro
Chronic HBV infections
  clearance of chronic HBV infections: can clear chronic HBV infections in different models
